# In patent US7342014B2, “Diamine derivatives” (Daiichi Pharmaceutical Co., Ltd., priority 2001, dated 2008):
# Counter-ions that a name gives are not always drawn. Like-named read-outs stand apart in the source and are kept apart here.
# Key:
# human FXa [1] = target: T1, human FXa (Homo sapiens, UniProt P00742); assay: Determination of anti-FXa activity in rat plasma after oral administration; type: in vivo; details: rats, oral dose of 10 mg/kg, plasma collected 0.5, 1, 2 and 4 hours after administration, human FXa and S-2222; read-out: FXa-inhibiting activity (percent inhibition) in plasma
# T1 construct: purchased Enzyme Research Labolatories, Inc
# T1 sequence (P00742 235-488 limits assumed): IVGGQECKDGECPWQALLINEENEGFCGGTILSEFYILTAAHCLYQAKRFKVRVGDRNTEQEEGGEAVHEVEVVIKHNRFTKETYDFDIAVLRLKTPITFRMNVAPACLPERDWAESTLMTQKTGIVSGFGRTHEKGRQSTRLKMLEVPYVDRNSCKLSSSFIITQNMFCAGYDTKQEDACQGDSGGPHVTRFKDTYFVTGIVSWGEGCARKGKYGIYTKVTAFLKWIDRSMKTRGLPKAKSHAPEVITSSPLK
# T1 sequence (P00742 41-179 partner limits assumed): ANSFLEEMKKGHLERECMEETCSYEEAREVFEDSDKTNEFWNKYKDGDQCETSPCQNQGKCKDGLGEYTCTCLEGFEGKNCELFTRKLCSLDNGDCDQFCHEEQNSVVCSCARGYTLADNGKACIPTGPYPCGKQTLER
# Protocol: Determination of Anti-FXa Activity in Rat Plasma After Oral Administration
# (A) Administration and Blood Collection:
# A drug solution (1 mg/ml) obtained by dissolving or suspending a test compound (10 mg) in 0.5% methyl cellulose (MC) was orally administered to rats (10 ml/kg). […] For rats of a control group, the same blood collection was conducted after a 0.5% MC solution was administered. Each blood sample was centrifuged at 1500×g for 10 minutes at 4° C. to separate plasma, and the plasma was preserved at −40° C. until it was used in the following determination of anti-FXa activity in plasma.
# (B) Determination of FXa-inhibiting Activity in Plasma:
# Tris buffer (100 mM Tris, 200 mM potassium chloride, 0.2% BSA, pH 7.4) (5456 μl), human FXa (2.5 U/ml, 44 μl) and water (550 μl) were mixed. The resultant human FXa solution was used in the following test.
# The anti-FXa activity, i.e., percent inhibition (%) was calculated in accordance with the following equation: […]
# human FXa [2] = target: T1, human FXa; assay: Determination of human FXa-inhibiting effect (IC50 value); type: biochemical
# Description: Determination of Human FXa-inhibiting Effect (IC50 Value)
# As a control, Tris buffer was used in place of the test compound.
# [3] = human FXa, substrate S-2222, absorbance at 405 nm, room temperature, read-out: Human FXa-inhibiting effect (IC50)
SMILES,IC50 (human FXa [2]; [3]),further results
"CN1CCc2nc(C(=O)N[C@@H]3C[C@@H](C(=O)N(C)C)CC[C@@H]3NC(=O)C(=O)Nc3ccc(Cl)cc3)sc2C1 [Example 191, N^1-(4-Chlorophenyl)-N^2-((1S,2R,4S)-4-[(dimethylamino)-carbonyl]-2-{[(5-methyl-4,5,6,7-tetrahydrothiazolo[5,4-c]-pyridin-2-yl)carbonyl]amino}cyclohexyl)ethanediamide hydrochloride]",1.2 nM,inhibition at 10 mg/kg (human FXa [1]): 62 to 96%
"CN1CCc2nc(C(=O)N[C@@H]3C[C@@H](C(=O)N(C)C)CC[C@@H]3NC(=O)C(=O)Nc3ccc(F)cc3)sc2C1 [Example 194, N^1-((1S,2R,4S)-4-[(Dimethylamino)carbonyl]-2-{[(5-methyl-4,5,6,7-tetrahydrothiazolo[5,4-c]pyridin-2-yl)carbonyl]amino}cyclohexyl)-N^2-(4-fluorophenyl)-ethanediamide hydrochloride]",5 nM,inhibition at 10 mg/kg (human FXa [1]): 62 to 96%
"CN1CCc2nc(C(=O)N[C@@H]3CN(C(=O)C4CC4)CC[C@@H]3NC(=O)c3cc4cc(Cl)ccc4[nH]3)sc2C1 (relative stereo) [Example 138, N-[(3R*,4S*)-4-{[(5-Chloroindol-2-yl)carbonyl]amino}-1-(cyclopropylcarbonyl)piperidin-3-yl]-5-methyl-4,5,6,7-tetrahydrothiazolo[5,4-c]pyridine-2-carboxamide hydrochloride]",4.4 nM,
"CN1CCc2nc(C(=O)N[C@@H]3CCCC[C@@H]3NC(=O)c3ccc4cc(Cl)ccc4c3)sc2C1 (relative stereo) [Example 7, N-{(1R*,2S*)-2-[(6-Chloronaphthoyl)amino]cyclohexyl}-5-methyl-4,5,6,7-tetrahydrothiazolo[5,4-c]pyridine-2-carboxamide hydrochloride]",83 nM,
"CCOC(=O)N1CC[C@H](NC(=O)c2cc3cc(Cl)ccc3[nH]2)[C@H](NC(=O)c2nc3c(s2)CN(C)CC3)C1 (relative stereo) [Example 130, Ethyl (3R*,4S*)-4-{[(5-chloroindol-2-yl)carbonyl]amino}-3-{[(5-methyl-4,5,6,7-tetrahydrothiazolo[5,4-c]pyridin-2-yl)carbonyl]amino}piperidine-1-carboxylate hydrochloride]",4.5 nM,
"CN1CCc2nc(C(=O)N[C@@H]3CCCC[C@@H]3NC(=O)c3cc4cc(Br)ccc4[nH]3)sc2C1 (relative stereo) [Example 11, N-((1R*,2S*)-2-{[(5-Bromoindol-2-yl)carbonyl]amino}-cyclohexyl)-5-methyl-4,5,6,7-tetrahydrothiazolo[5,4-c]-pyridine-2-carboxamide hydrochloride]",92 nM,
"CN1CCc2nc(C(=O)N[C@@H]3CN(S(=O)(=O)CC(=O)O)C[C@H]3NC(=O)c3cc4cc(Cl)ccc4[nH]3)sc2C1 [Example 101, 2-[((3R,4R)-3-{[(5-Chloroindol-2-yl)carbonyl]amino}-4-{[(5-methyl-4,5,6,7-tetrahydrothiazolo[5,4-c]pyridin-2-yl)carbonyl]amino}pyrrolidin-1-yl)sulfonyl]acetic acid]",26 nM,
"CN1CCc2nc(C(=O)N[C@@H]3C[C@@H](C(=O)N(C)C)CC[C@@H]3NC(=O)C(=O)Nc3ccc(Br)cn3)sc2C1 [Example 204, N^1-(5-Bromopyridin-2-yl)-N^2-((1S,2R,4S)-4-[(dimethylamino)-carbonyl]-2-{[(5-methyl-4,5,6,7-tetrahydrothiazolo[5,4-c]-pyridin-2-yl)carbonyl]amino}cyclohexyl)ethanediamide hydrochloride]",1.5 nM,inhibition at 10 mg/kg (human FXa [1]): 62 to 96%
"CN1CCc2nc(C(=O)N[C@@H]3C[C@@H](C(=O)N(C)C)CC[C@@H]3NC(=S)C(=O)Nc3ccc(Cl)cc3)sc2C1 [Ex. 246, N-{(1R,2S,5S)-2-{[2-(4-Chloroanilino)-2-oxoethane-thioyl]amino}-5-[(dimethylamino)carbonyl]cyclohexyl}-5-methyl-4,5,6,7-tetrahydrothiazolo[5,4-c]pyridine-2-carboxamide]",3.1 nM,
"CN1CCc2nc(C(=O)N[C@@H]3CN(C(=O)NC(C)(C)C)CC[C@@H]3NC(=O)c3cc4cc(Cl)ccc4[nH]3)sc2C1.Cl (relative stereo) [Example 164, N-((3R*,4S*)-1-[(tert-Butylamino)carbonyl]-4-{[(5-chloroindol-2-yl)carbonyl]amino}piperidin-3-yl)-5-methyl-4,5,6,7-tetrahydrothiazolo[5,4-c]pyridine-2-carboxamide hydrochloride]",4.8 nM,melting point: 236 to 238 °C (dec.)
"CN1CCc2nc(C(=O)N[C@H]3CCC[C@@H]3NC(=O)c3cc4cc(Cl)ccc4[nH]3)sc2C1 (relative stereo) [Example 3, N-((1R*,2R*)-2-{[(5-Chloroindol-2-yl)carbonyl]amino}-cyclopentyl)-5-methyl-4,5,6,7-tetrahydrothiazolo[5,4-c]-pyridine-2-carboxamide hydrochloride]",,IC50 (human FXa [2]): 86 nM
"CN1CCc2nc(C(=O)N[C@@H]3C[C@@H](C(=O)N(C)C)CC[C@@H]3NC(=O)C(=S)Nc3ccc(Cl)cn3)sc2C1 [Ex. 248, N-{(1R,2S,5S)-2-({2-[(5-Chloropyridin-2-yl)amino]-2-thioxoacetyl}amino)-5-[(dimethylamino)carbonyl]-cyclohexyl}-5-methyl-4,5,6,7-tetrahydrothiazolo[5,4-c]-pyridine-2-carboxamide]",5.4 nM,
"CCNC(=O)[C@H]1CC[C@H](NC(=O)c2cc3cc(Cl)ccc3[nH]2)[C@H](NC(=O)c2nc3c(s2)CN(C)CC3)C1 [Example 62, N-{(1R,2S,5S)-2-{[(5-Chloroindol-2-yl)carbonyl]amino}-5-[(ethylamino)carbonyl]cyclohexyl}-5-methyl-4,5,6,7-tetrahydrothiazolo[5,4-c]pyridine-2-carboxamide hydrochloride]",3.5 nM,
"COC(=O)[C@@H]1CC[C@H](NC(=O)c2cc3cc(Cl)ccc3[nH]2)[C@H](NC(=O)c2nc3c(s2)CN(C)CC3)C1 [Example 54, Methyl (1R,3R,4S)-4-{[(5-chloroindol-2-yl)carbonyl]amino}-3-{[(5-methyl-4,5,6,7-tetrahydrothiazolo[5,4-c]pyridin-2-yl)carbonyl]amino}cyclohexanecarboxylate]",4.2 nM,
